Test system: U87MG cells
Test: Cellular assay, inhibition of 2-HG production in U87MG cells
Type: cell-based
Procedure, shortened: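 HT1080 or U87MG cells (U87MG kept with 500 ug/mL G418) seeded at 5000 cells/well and treated with compound at 0.2% final DMSO. Incubated 48 h at 37 °C. 2-HG inhibition determined by LC-MS. Viability read by CellTiter-Glo luminescence at 72 h post-dose.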

| Molecule | IC50 (Homo sapiens, U-87 MG, 48 h) [nM] | IC50 (inhibition of 2-HG production, U87MG cells, 48 hours) [nM] |
| --- | --- | --- |
| N#Cc1ccnc(N2C(=O)[C@H](O)C[C@H]2C(=O)N(c2cc(F)cc(F)c2)[C@@H](C(=O)NC2CCC(F)(F)CC2)c2ccccc2Cl)c1 [Compound 124, (2S,4R)—N—((R)-1-(2-Chlorophenyl)-2-(4,4-difluorocyclohexylamino)-2-oxoethyl)-1-(4-cyanopyridin-2-yl)-N-(3,5-difluorophenyl)-4-hydroxy-5-oxopyrrolidine-2-carboxamide] | < 100 | – |
| O=C(NC1CC(F)(F)C1)[C@H](c1ccccc1Cl)N(C(=O)[C@@H]1CCC(=O)N1c1cc(Cl)ccn1)c1cccc(F)c1 [Compound 33] | 100 to 500 | – |
| (S)—N—((S)-1-(2-Chlorophenyl)-2-((4,4-difluorocyclohexyl)amino)-2-oxoethyl)-1-(4-cyanopyridin-2-yl)-N-(1H-indazol-6-yl)-5-oxopyrrolidine-2-carboxamide [Compound 136] | – | < 100 |
| O=C(NC1CC(F)(F)C1)[C@H](c1ccccc1Cl)N(C(=O)[C@@H]1CCC(=O)N1c1nccs1)c1cccc(F)c1 [Compound 14] | 100 to 500 | – |
| N#Cc1cccnc1N1C(=O)CC[C@H]1C(=O)N(c1cccc(F)c1)[C@H](C(=O)NC1CC(F)(F)C1)c1ccccc1Cl [Compound 69, (S)—N—((S)-1-(2-Chlorophenyl)-2-((3,3-difluorocyclobutyl)amino)-2-oxoethyl)-1-(3-cyanopyri-din-2-yl)-N-(3-fluorophenyl)-5-oxopyrrolidine-2-carboxamide] | < 100 | – |
| N#Cc1ccnc(N2C(=O)[C@H](O)C[C@H]2C(=O)N(c2cccc(F)c2)[C@H](C(=O)NC2CCC(F)(F)CC2)c2ccccc2Cl)n1 [Compound 123, (2S,4R)—N—((S)-1-(2-Chlorophenyl)-2-((4,4-difluorocyclohexyl)amino)-2-oxoethyl)-1-(4-cyanopyrimidin-2-yl)-N-(3-fluorophenyl)-4-hydroxy-5-oxopyrrolidine-2-carboxamide] | < 100 | – |
| N#Cc1ccnc(N2C(=O)CC[C@H]2C(=O)N(c2cccc(C3CC3)c2)[C@H](C(=O)NC2CC(F)(F)C2)c2ccccc2Cl)c1 [Compound 173, (S)—N—((S)-1-(2-Chlorophenyl)-2-((3,3-difluorocyclobutyl)amino)-2-oxoethyl)-1-(4-cyanopyri-din-2-yl)-N-(3-cyclopropylphenyl)-5-oxopyrrolidine-2-carboxamide] | < 100 | – |
| O=C(NC1CCCCC1)[C@H](c1ccccc1Cl)N(C(=O)[C@@H]1CCC(=O)N1c1ncccn1)c1cccc(F)c1 [Compound 7] | < 100 | – |
| CS(=O)(=O)c1cccc(N(C(=O)[C@@H]2CCC(=O)N2c2nccc(C#N)n2)C(C(=O)NC2CC(F)(F)C2)c2ccccc2Cl)c1 (mixture of isomers) [Compound 102, (2S)—N-(1-(2-Chlorophenyl)-2-((3,3-difluorocyclobutyl)amino)-2-oxoethyl)-1-(4-cyanopyrimidin-2-yl)-N-(3-(methylsulfonyl)phenyl)-5-oxopyrrolidine-2-carboxamide] | 100 to 500 | – |
| N#Cc1cc(F)cc(N(C(=O)[C@@H]2C[C@@H](O)C(=O)N2c2cc(C#N)ccn2)C(C(=O)NC2CC(F)(F)C2)c2ccccc2Cl)c1 (mixture of isomers) [Compound 169, (2S,4R)—N-(1-(2-Chlorophenyl)-2-(3,3-difluorocyclobutylamino)-2-oxoethyl)-N-(3-cyano-5-fluorophenyl)-1-(4-cyanopyridin-2-yl)-4-hydroxy-5-oxopyrrolidine-2-carboxamide] | < 100 | – |
| N#Cc1ccnc(N2C(=O)CN(CCO)C[C@H]2C(=O)N(c2cc(F)cc(F)c2)[C@H](C(=O)NC2CC(F)(F)C2)c2ccccc2Cl)c1 [Compound 107, (S)—N—((S)-1-(2-chlorophenyl)-2-((3,3-difluorocyclobutyl)amino)-2-oxoethyl)-1-(4-cyanopyridin-2-yl)-N-(3,5-difluorophenyl)-4-(2-hydroxyethyl)-6-oxopiperazine-2-carboxamide] | < 100 | – |
| N#Cc1ccnc(N2C(=O)CC[C@H]2C(=O)N(c2cccc(F)c2)[C@H](C(=O)NC2CCC(F)(F)CC2)c2ccccc2Cl)n1 [Compound 85, (S)—N—((S)-1-(2-Chlorophenyl)-2-((4,4-difluorocyclohexyl)amino)-2-oxoethyl)-1-(4-cyanopyrimidin-2-yl)-N-(3-fluorophenyl)-5-oxopyrrolidine-2-carboxamide] | < 100 | – |
| COc1cccc(N(C(=O)[C@@H]2CCC(=O)N2c2nccc(C#N)n2)[C@H](C(=O)NC2CC(F)(F)C2)c2ccccc2Cl)c1 [Compound 164, (S)—N—((S)-1-(2-Chlorophenyl)-2-(3,3-difluorocyclobutyl-amino)-2-oxoethyl)-1-(4-cyanopyrimidin-2-yl)-N-(3-methoxyphenyl)-5-oxopyrrolidine-2-carboxamide] | < 100 | – |
| N#Cc1ccnc(N2C(=O)CC[C@H]2C(=O)N(c2ccc3[nH]ncc3c2)[C@H](C(=O)NC2CCC(F)(F)CC2)c2ccccc2Cl)c1 [Compound 203, (S)—N—((S)-1-(2-Chlorophenyl)-2-((4,4-difluorocyclohexyl)amino)-2-oxoethyl)-1-(4-cyanopyridin-2-yl)-N-(1H-indazol-5-yl)-5-oxopyrrolidine-2-carboxamide] | < 100 | – |
| N#Cc1cnc(N2C(=O)CC[C@H]2C(=O)N(c2cc(F)cc(F)c2)[C@H](C(=O)NC2CC(F)(F)C2)c2ccccc2Cl)o1 [Compound 162, (S)—N—((S)-1-(2-chlorophenyl)-2-((3,3-difluorocyclobutyl)amino)-2-oxoethyl)-1-(5-cyanooxa-zol-2-yl)-N-(3,5-difluorophenyl)-5-oxopyrrolidine-2-carboxamide] | < 100 | – |
| CN1C[C@@H](C(=O)N(c2cccc(F)c2)C(C(=O)NC2CC(F)(F)C2)c2ccccc2Cl)N(c2cc(C#N)ccn2)C1=O (stereo partly drawn) [Compound 79, (4S)—N-(1-(2-chlorophenyl)-2-((3,3-difluorocyclobutyl)amino)-2-oxoethyl)-3-(4-cyanopyridin-2-yl)-N-(3-fluorophenyl)-1-methyl-2-oxoimidazolidine-4-carboxamide] | < 100 | – |
| N#Cc1ccnc(N2C(=O)[C@H](O)C[C@H]2C(=O)N(c2cc(F)cc(F)c2)[C@@H](C(=O)NC2CC(F)(F)C2)c2ccccc2Cl)n1 [Compound 116, (2S,4R)—N—((R)-1-(2-Chlorophenyl)-2-((3,3-difluorocyclobutyl)amino)-2-oxoethyl)-1-(4-cyanopyrimidin-2-yl)-N-(3,5-difluorophenyl)-4-hydroxy-5-oxopyrrolidine-2-carboxamide] | 100 to 500 | – |
| N#Cc1ccnc(N2C(=O)CN(C3CC3)C[C@H]2C(=O)N(c2cc(F)cc(F)c2)[C@H](C(=O)NC2CC(F)(F)C2)c2ccccc2Cl)c1 [Compound 106, (S)—N—((S)-1-(2-chlorophenyl)-2-((3,3-difluorocyclobutyl)amino)-2-oxoethyl)-1-(4-cyanopyridin-2-yl)-4-cyclopropyl-N-(3,5-difluorophenyl)-6-oxopiperazine-2-carboxamide] | < 100 | – |
| N#Cc1ccnc(N2C(=O)OCC[C@H]2C(=O)N(c2cccc(F)c2)C(C(=O)NC2CC(F)(F)C2)c2ccccc2Cl)c1 (mixture of isomers) [Compound 90, (4S)—N-(1-(2-Chlorophenyl)-2-(3,3-difluorocyclobutylamino)-2-oxoethyl)-3-(4-cyanopyridin-2-yl)-N-(3-fluorophenyl)-2-oxo-1,3-oxazinane-4-carboxamide] | < 100 | – |
